Results on 15 molecules are retold here after ChEMBL document CHEMBL3132850, “5-Nor carbocyclic nucleosides: unusual nonnucleoside inhibitors of HIV-1 reverse transcriptase” (Medchemcomm, 2013).

Broadly, the CC50 is the concentration that lowers cell viability or growth by half. A word on the EC50: it is the midpoint of the concentration-response curve. What is called IC50 is the concentration that gives 50% inhibition. A higher IC50 goes with lower potency.

Calls of active or inactive are those of the source. The calls are words filed in the database; no cut-off is given here.

The nature of series [1]: Cytotoxicity against human CEM cells after 3 days. The format is cell-based. Conditions: CEM cells (CCRF-CEM).
The subject of series [2] is Human immunodeficiency virus 1. Nature of the series: Antiviral activity against HIV1 3B infected in human CEM cells assessed as reduction of giant cell formation after 4 days by microscopic analysis. Type of series: functional, organism-based. The settings on record: Human immunodeficiency virus 1, 3B, CCRF-CEM, 96 h.
The target in series [3] is Human immunodeficiency virus type 1 reverse transcriptase (Human immunodeficiency virus 1, UniProt Q72547). The series is described as follows: (§1) Inhibition of HIV1 wild type reverse transcriptase expressed in Escherichia coli BL21 (DE3) using [alpha-32P]dATP after 30 mins by liquid scintillation counting.
Series [4] concerns the target Human immunodeficiency virus type 1 reverse transcriptase (Human immunodeficiency virus 1, UniProt Q72547, K103N/Y181C). The series is described as follows: Inhibition of HIV1 reverse transcriptase K103N/Y181C mutant expressed in Escherichia coli BL21 (DE3) using [alpha-32P]dATP after 30 mins by liquid scintillation counting.
Series [5] relates to Sindbis virus. Nature of the series: Antiviral activity against Sindbis virus. The format is functional, organism-based.
In series [6] the target is Human immunodeficiency virus type 1 reverse transcriptase (Human immunodeficiency virus 1, UniProt Q72547, V106A). The series is described as follows: Inhibition of HIV1 reverse transcriptase V106A mutant expressed in Escherichia coli BL21 (DE3) using [alpha-32P]dATP after 30 mins by liquid scintillation counting.
The test system of series [7] is Human respirovirus 3. Nature of the series: Antiviral activity against Parainfluenza virus 3. Type of series: functional, organism-based.
Series [8] relates to Mammalian orthoreovirus 1. Nature of the series: Antiviral activity against Reovirus-1. The format is functional, organism-based.
Series [9] has as its system Punta Toro virus. Nature of the series: Antiviral activity against Punta Toro virus. Type of series: functional, organism-based.
Series [10] concerns Influenza B virus. The series is described as follows: Antiviral activity against Influenza B virus. Type of series: functional, organism-based.
For series [11], the system named is Human alphaherpesvirus 2. The series is described as follows: Antiviral activity against Herpes simplex virus-2 G. The format is functional, organism-based. The settings on record: strain G.
For series [12], the system named is Respiratory syncytial virus. The series is described as follows: Antiviral activity against Respiratory syncytial virus. The format is functional, organism-based.
In series [13] the test system is Human alphaherpesvirus 1. The series is described as follows: Antiviral activity against Herpes simplex virus-1 KOS. The format is functional, organism-based.
For series [14], the target named is Human immunodeficiency virus type 1 reverse transcriptase (Human immunodeficiency virus 1, UniProt Q72547, Y181C). The series is described as follows: Inhibition of HIV1 reverse transcriptase Y181C mutant expressed in Escherichia coli BL21 (DE3) using [alpha-32P]dATP after 30 mins by liquid scintillation counting.
For series [15], the target named is Human immunodeficiency virus type 1 reverse transcriptase (Human immunodeficiency virus 1, UniProt Q72547, G190A). The series is described as follows: Inhibition of HIV1 reverse transcriptase G190A mutant expressed in Escherichia coli BL21 (DE3) using [alpha-32P]dATP after 30 mins by liquid scintillation counting.
The subject of series [16] is Vaccinia virus. The series is described as follows: Antiviral activity against Vaccinia virus. Type of series: functional, organism-based. The settings on record: Orthopoxvirus vaccinia.
The subject of series [17] is Coxsackievirus B4. The series is described as follows: Antiviral activity against Coxsackievirus B4. Type of series: functional, organism-based.
The subject of series [18] is Human alphaherpesvirus 3. The series is described as follows: Antiviral activity against Varicella-zoster virus. Type of series: functional, organism-based.
In series [19] the test system is Influenza A virus. The series is described as follows: Antiviral activity against Influenza A virus H1N1. Type of series: functional, organism-based.
The target in series [20] is Human immunodeficiency virus type 1 reverse transcriptase (Human immunodeficiency virus 1, UniProt Q72547, L100I). The series is described as follows: Inhibition of HIV1 reverse transcriptase L100I mutant expressed in Escherichia coli BL21 (DE3) using [alpha-32P]dATP after 30 mins by liquid scintillation counting.
Series [21] relates to Vesicular stomatitis virus. The series is described as follows: Antiviral activity against Vesicular stomatitis virus. Type of series: functional, organism-based.
The target of series [22] is Human immunodeficiency virus type 1 reverse transcriptase (Human immunodeficiency virus 1, UniProt Q72547, K103N). The series is described as follows: Inhibition of HIV1 reverse transcriptase K103N mutant expressed in Escherichia coli BL21 (DE3) using [alpha-32P]dATP after 30 mins by liquid scintillation counting.
For series [23], the system named is Influenza A virus H3N2. The series is described as follows: Antiviral activity against Influenza A virus H3N2. The format is functional, organism-based.
Series [24] relates to Feline coronavirus. The series is described as follows: Antiviral activity against Feline coronavirus. Type of series: functional, organism-based.
Series [25] can be described thus: Solubility of the compound in 10% DMSO up to 50 uM. Type of series: physicochemical.
Series [26] has as its target Human immunodeficiency virus type 1 reverse transcriptase (Human immunodeficiency virus 1) (UniProt Q72547). The description is as §1.
Series [27] relates to Human immunodeficiency virus 1. Nature of the series: Ratio of IC50 for HIV1 wild type reverse transcriptase to IC50 for HIV1 reverse transcriptase L100I mutant.

Consider `O=C(OC1C=CC(n2ccc(=O)n(C(=O)c3ccccc3)c2=O)C1)c1ccccc1` (racemic), for which the 50% cytotoxic concentration (CC50) at 72 h in [1] is at least 250 µM. In addition, in series [2], the EC50 was over 50 µM. Moreover, the IC50 in series [3] was over 100 µM.
For the molecule `Cc1cc(=O)n(C(=O)c2ccccc2)c(=O)n1C1C=CC(OC(=O)c2ccccc2)C1` (racemic), the CC50 at 72 h in series [1] is 191 µM. The EC50 in [2] was over 50 µM. The same molecule yielded an IC50 in series [3] of over 100 µM.
For the molecule `O=C(OC1C=CC(n2ccc(=O)n(Cc3ccccc3)c2=O)C1)c1ccccc1` (racemic), the IC50 was over 50 µM in [4]; over 50 µM in series [6]; over 50 µM in series [14]; over 50 µM in series [15]; 1.2 µM in series [20]; 13.4 µM in series [3]. This molecule returned a concentration for half-maximal inhibition (IC50) in series [22] of 33.6 µM. The molecule further showed a half-maximal cytotoxic concentration (CC50) at 72 h in series [1] of over 25 µM. The outcome in series [5], in series [7], in series [8], in [9], in series [10] and in series [11] was inactive. Moreover, the outcome in [12], in series [13], in series [16], in [17], in series [18] and in series [19] was inactive. In addition, the outcome in series [21], in series [23] and in series [24] was inactive. Further, the EC50 in [2] is over 10 µM.
Consider `Cc1ccc(Cn2c(=O)ccn(C3C=CC(OC(=O)c4ccccc4)C3)c2=O)cc1` (racemic), for which the IC50 in series [4] is over 50 µM; in series [6], over 50 µM; in series [14] it was over 50 µM; in series [15] it was over 50 µM; in [20] it was 2.4 µM; in series [3] it was 18.7 µM. For the same molecule, in series [22], the concentration for half-maximal inhibition (IC50) worked out at 55.4 µM. In series [1], this molecule yielded a cytotoxic concentration (CC50) at 72 h of over 25 µM. For the same molecule, the outcome in series [5], in series [7], in [8], in [9], in series [10] and in series [11] was inactive. For the same molecule, the result in series [12], in [13], in series [16], in series [17], in series [18] and in [19] was inactive. For the same molecule, the outcome in [21], in series [23] and in [24] was inactive. The EC50 in series [2] is over 10 µM.
Molecule `Cc1ccc(Cn2c(=O)ccn(C3C=CC(OC(=O)c4ccccc4)C3)c2=O)c(C)c1` (racemic) showed a CC50 at 72 h in [1] of 31 µM. Also, the EC50 in [2] is over 50 µM. Further, the 50% inhibitory concentration (IC50) in series [3] is over 50 µM.
With `Cc1cc(C)cc(Cn2c(=O)ccn(C3C=CC(OC(=O)c4ccccc4)C3)c2=O)c1` (racemic), the IC50 in [4] was over 50 µM; in [6], over 50 µM; in series [14], over 50 µM; in [15], over 50 µM; in series [20], 11.1 µM; in series [3], over 50 µM. This molecule also displayed a concentration for half-maximal inhibition (IC50) in series [22] of over 50 µM. Also, the solubility result in series [25] is reported as “soluble”. The CC50 at 72 h in series [1] is 40 µM. For the same molecule, the result in series [5], in [7], in series [8], in series [9], in series [10] and in series [11] was inactive. Besides, the result in series [12], in series [13], in series [16], in series [17], in series [18] and in series [19] was inactive. In addition, the outcome in [21], in series [23] and in series [24] was inactive. In addition, the EC50 in [2] was over 10 µM. For the same molecule, the inhibition entry in series [26] was “Dose-dependent effect”. The Ratio IC50 in series [27] is 10.
As for `O=C(OC1C=CC(n2ccc(=O)n(Cc3cc(F)cc(F)c3)c2=O)C1)c1ccccc1` (racemic), the CC50 at 72 h in series [1] was 32 µM. The EC50 in series [2] was over 10 µM. Further, the IC50 in series [3] is over 50 µM.
Take `Cc1cc(=O)n(Cc2ccccc2)c(=O)n1C1C=CC(OC(=O)c2ccccc2)C1` (racemic): half-maximal cytotoxicity in series [1] (CC50 at 72 h) was put at 34 µM. For the same molecule, the EC50 in [2] is over 10 µM. The half-maximal inhibitory concentration (IC50) in series [3] was over 50 µM.
For `Cc1ccc(Cn2c(=O)cc(C)n(C3C=CC(OC(=O)c4ccccc4)C3)c2=O)cc1` (racemic) the same measures were 20 µM, over 10 µM and over 50 µM.
Turning to `Cc1cc(C)cc(Cn2c(=O)cc(C)n(C3C=CC(OC(=O)c4ccccc4)C3)c2=O)c1` (racemic), it took 25 µM to reach half-maximal cytotoxicity in series [1] (CC50 at 72 h). Besides, in series [2], the EC50 was over 10 µM. In addition, the concentration for half-maximal inhibition (IC50) in [3] was over 50 µM.
For `O=C(OC1C=CC(n2ccc(=O)[nH]c2=O)C1)c1ccccc1` (racemic) the same measures were over 250 µM, over 250 µM and over 100 µM.
For `Cc1cc(=O)[nH]c(=O)n1C1C=CC(OC(=O)c2ccccc2)C1` (racemic) the same measures were over 250 µM, over 50 µM and over 100 µM.
In series [1], `O=c1ccn(C2C=CC(O)C2)c(=O)n1Cc1ccccc1` (racemic) displayed a CC50 at 72 h of over 250 µM. This molecule also registered an IC50 in series [3] of over 100 µM.
Molecule `CC(C)Nc1cccnc1N1CCN(C(=O)c2cc3cc(NS(C)(=O)=O)ccc3[nH]2)CC1` [DELAVIRDINE] gave a CC50 at 72 h in [1] of over 25 µM. Further, in series [2], the half-maximal effective concentration (EC50) was determined as 0.11 µM.
Taken in the same sequence, the figures for `Cc1ccnc2c1NC(=O)c1cccnc1N2C1CC1` [NEVIRAPINE] were over 25 µM and 0.024 µM.
